Experimental data from patent publication US11479802B2, “Assays for screening activity of modulators of members of the hydroxy steroid (17-beta) dehydrogenase (HSD17B) family” (Regeneron Pharmaceuticals, Inc., priority 2017, dated 2022).
Structures can show the parent of a compound that is named as a salt.

Target: T1, human HSD17B13 (Homo sapiens, UniProt Q7Z5P4)
T1 sequence (Q7Z5P4 20-300): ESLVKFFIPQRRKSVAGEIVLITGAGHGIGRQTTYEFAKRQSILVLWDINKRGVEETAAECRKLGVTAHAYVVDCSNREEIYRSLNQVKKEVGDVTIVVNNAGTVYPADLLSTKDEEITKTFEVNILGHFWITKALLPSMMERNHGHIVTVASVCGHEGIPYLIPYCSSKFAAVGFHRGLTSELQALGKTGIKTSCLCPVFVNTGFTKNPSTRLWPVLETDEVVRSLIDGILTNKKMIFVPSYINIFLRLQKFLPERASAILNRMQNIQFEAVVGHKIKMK
Experiment: Substrate screening of steroid and bioactive lipid libraries against purified recombinant HSD17B13 (NADH-linked luciferase assay)
Format: biochemical
Details: for HSD17B13 Enzymatic Activity Relative Light Units: 500 μM NAD+, 100 ng enzyme, 3 hours at 23° C.; for HSD17B13 Enzymatic Activity Percent Estradiol Control: normalized to 50 μM estradiol after subtraction of 5% DMSO
Experimental: To understand the functional consequences of premature truncation of the HSD17B13 protein due to rs72613567:TA (the associated variant, rs72613567, is an insertion of an adenine adjacent to the donor splice site of exon six (TA allele)), the enzymatic activity of isoforms A and D was evaluated in vitro using recombinant protein and nicotinamide […] dinucleotide as cofactor. Reactions were performed in a final volume of 40 μl of assay buffer (0.2 M Tris-HCl, pH 7.5) which contained 500 μM NAD^+, 5 μM bioactive lipid or 50 μM steroid (all in a final concentration of 5% DMSO), and 100 ng of recombinant human HSD17B13. Reactions were incubated for 3 hours, at 23° C., after which an equal volume detection reagent was added. Following a 1 hour incubation at 23° C., the relative light units (RLUs) were measured on an Envision Plate Reader (Perkin Elmer). Raw RLU values were normalized as percent of control (50 μM estradiol) following subtraction of negative control (5% DMSO) using the following formula: Percent of control (POC)=100×(Sample (RLU)−Negative CTRLaverage)/(Positive CTRLaverage−Negative CTRLaverage).

[1] = Bioactive Lipid Library, 5 μM bioactive lipid (Estradiol Control 50 μM)
[2] = Bioactive Lipid Library, 5 μM bioactive lipid

SMILES: CCC(O)C(O)C/C=C\C/C=C\C/C=C\C/C=C\CCCC(=O)O (racemic) [(±)17(18)-DiHETE]
- HSD17B13 Enzymatic Activity Relative Light Units [1]: 369120 RLU
- HSD17B13 Enzymatic Activity Percent Estradiol Control [2]: 3.33%

SMILES: CCC1OC1C/C=C\C/C=C\C/C=C\C/C=C\CCCC(=O)O (racemic) [(±)17(18)-EpETE]
- HSD17B13 Enzymatic Activity Relative Light Units [1]: 316240 RLU
- HSD17B13 Enzymatic Activity Percent Estradiol Control [2]: 2.19%

SMILES: CC/C=C\CC(O)/C=C/C=C\C/C=C\C/C=C\C/C=C\CCC(=O)O (racemic) [(±)17-HDHA]
- HSD17B13 Enzymatic Activity Relative Light Units [1]: 492440 RLU
- HSD17B13 Enzymatic Activity Percent Estradiol Control [2]: 15.29%

SMILES: CCC(O)C(O)C/C=C\C/C=C\C/C=C\C/C=C\C/C=C\CCC(=O)O (racemic) [(±)19(20)-DiHDPA]
- HSD17B13 Enzymatic Activity Relative Light Units [1]: 827600 RLU
- HSD17B13 Enzymatic Activity Percent Estradiol Control [2]: 37.95%

SMILES: CC[C@H]1O[C@H]1C/C=C\C/C=C\C/C=C\C/C=C\C/C=C\CCC(=O)O (racemic) [(±)19(20)-EpDPA]
- HSD17B13 Enzymatic Activity Relative Light Units [1]: 300600 RLU
- HSD17B13 Enzymatic Activity Percent Estradiol Control [2]: 1.38%

SMILES: CCC(O)/C=C/C=C\C/C=C\C/C=C\C/C=C\C/C=C\CCC(=O)O (racemic) [(±)20-HDHA]
- HSD17B13 Enzymatic Activity Relative Light Units [1]: 1400640 RLU
- HSD17B13 Enzymatic Activity Percent Estradiol Control [2]: 82.82%

SMILES: CC(C)OC(=O)CCC/C=C/C[C@@H]1[C@@H](/C=C/[C@@H](O)COc2cccc(C(F)(F)F)c2)[C@H](O)C[C@@H]1O (relative stereo) [5-trans Fluprostenol isopropyl ester]
- HSD17B13 Enzymatic Activity Relative Light Units [1]: 551400 RLU
- HSD17B13 Enzymatic Activity Percent Estradiol Control [2]: 21.21%

SMILES: CCCCC/C=C\C[C@@H](O)/C=C/C=C/C=C/[C@@H](O)CCCC(=O)O (relative stereo) [6-trans Leukotriene B4]
- HSD17B13 Enzymatic Activity Relative Light Units [1]: 1209480 RLU
- HSD17B13 Enzymatic Activity Percent Estradiol Control [2]: 68.61%

SMILES: CC/C=C/C[C@H](O)/C=C/[C@@H]1[C@@H](C/C=C\CCCC(=O)O)[C@@H](O)C[C@H]1O (relative stereo) [17-trans Prostaglandin F3α]
- HSD17B13 Enzymatic Activity Relative Light Units [1]: 371720 RLU
- HSD17B13 Enzymatic Activity Percent Estradiol Control [2]: 7.01%

SMILES: CCCCC[C@H](O)/C=C/[C@H]1[C@H](O)CC(=O)[C@@H]1CCCCC(=O)O [2,3-dinor Prostaglandin E1]
- HSD17B13 Enzymatic Activity Relative Light Units [1]: 344240 RLU
- HSD17B13 Enzymatic Activity Percent Estradiol Control [2]: 4.83%

SMILES: CCCCC[C@H](O)/C=C/[C@H]1OC(O)C[C@H](O)[C@@H]1CCCCC(=O)O (some centres unmarked) [2,3-dinor Thromboxane B1]
- HSD17B13 Enzymatic Activity Relative Light Units [1]: 364840 RLU
- HSD17B13 Enzymatic Activity Percent Estradiol Control [2]: 3.01%

SMILES: CCCCC[C@H](O)/C=C/[C@@H]1[C@@H](CC(=O)CCC(=O)O)[C@@H](O)C[C@H]1O [2,3-dinor-6-keto Prostaglandin F1α (sodium salt)]
- HSD17B13 Enzymatic Activity Relative Light Units [1]: 341800 RLU
- HSD17B13 Enzymatic Activity Percent Estradiol Control [2]: 4.64%

SMILES: CCCCC[C@H](O)/C=C/[C@@H]1[C@H](C/C=C\CC(=O)O)[C@@H](O)C[C@H]1O [2,3-dinor-8-iso Prostaglandin F2α]
- HSD17B13 Enzymatic Activity Relative Light Units [1]: 230040 RLU
- HSD17B13 Enzymatic Activity Percent Estradiol Control [2]: −4.19%

SMILES: CCCCC[C@H](O)/C=C/[C@@H]1[C@@H](C/C=C\CC(=O)O)[C@@H](O)C[C@@H]1O [2,3-dinor-11β-Prostaglandin F2α]
- HSD17B13 Enzymatic Activity Relative Light Units [1]: 265000 RLU
- HSD17B13 Enzymatic Activity Percent Estradiol Control [2]: −1.43%

SMILES: C[C@]12CC[C@H]3[C@@H]([C@H]4C[C@H]4[C@]4(O)C[C@@H](O)CC[C@]34C)[C@@H]1[C@@H]1C[C@@H]1C2=O [3b,5-Dihydroxy-6b,7b:15b,16b-dimethylene-5b-androstan17-one]
- HSD17B13 Enzymatic Activity Relative Light Units (Steroid Library, 50 μM steroid): 183120 RLU
- HSD17B13 Enzymatic Activity Percent Estradiol Control (Steroid Library, 50 μM steroid): 0.39%

SMILES: CC/C=C\C/C=C\C/C=C\C/C=C\CC1OC1CCCC(=O)OC (centres unmarked) [5(6)-EpETE methyl ester]
- HSD17B13 Enzymatic Activity Relative Light Units [1]: 337400 RLU
- HSD17B13 Enzymatic Activity Percent Estradiol Control [2]: 0.93%

SMILES: CCCCC/C=C\C\C=C/C=C/C=C/[C@@H](O)[C@@H](O)CCCC(=O)O [5(S),6(R)-DiHETE]
- HSD17B13 Enzymatic Activity Relative Light Units [1]: 166040 RLU
- HSD17B13 Enzymatic Activity Percent Estradiol Control [2]: 1.66%

SMILES: CCCCC/C=C\C\C=C/C=C/C=C/[C@H](O)[C@@H](O)CCCC(=O)O [5(S),6(S)-DiHETE]
- HSD17B13 Enzymatic Activity Relative Light Units [1]: 309080 RLU
- HSD17B13 Enzymatic Activity Percent Estradiol Control [2]: 4.07%

SMILES: CCCCC[C@H](O)/C=C/C=C\C/C=C\C=C\[C@@H](O)CCCC(=O)O [5(S),15(S)-DiHETE]
- HSD17B13 Enzymatic Activity Relative Light Units [1]: 486600 RLU
- HSD17B13 Enzymatic Activity Percent Estradiol Control [2]: 14.86%

SMILES: CC/C=C\C/C=C\C/C=C\C/C=C\C=C\[C@@H](O)CCCC(=O)O [5(S)-HEPE]
- HSD17B13 Enzymatic Activity Relative Light Units [1]: 429120 RLU
- HSD17B13 Enzymatic Activity Percent Estradiol Control [2]: 10.58%

SMILES: CCCCC/C=C\C/C=C\C/C=C\C=C\[C@@H]1CCCC(=O)O1 [5(S)-HETE lactone]
- HSD17B13 Enzymatic Activity Relative Light Units [1]: 288400 RLU
- HSD17B13 Enzymatic Activity Percent Estradiol Control [2]: 0.12%

SMILES: CCCCC/C=C\C/C=C\C/C=C\C=C\[C@@H](O)CCCC(=O)O [5(S)-HETE]
- HSD17B13 Enzymatic Activity Relative Light Units [1]: 430800 RLU
- HSD17B13 Enzymatic Activity Percent Estradiol Control [2]: 10.71%

SMILES: CCCCC/C=C\C/C=C\C/C=C\C=C\[C@H](CCCC(=O)O)OO [5(S)-HpETE]
- HSD17B13 Enzymatic Activity Relative Light Units [1]: 225600 RLU
- HSD17B13 Enzymatic Activity Percent Estradiol Control [2]: −4.55%

SMILES: CCCCC/C=C\C/C=C\C/C=C\CC#CCCCC(=O)O [5,6-dehydro Arachidonic Acid]
- HSD17B13 Enzymatic Activity Relative Light Units [1]: 210160 RLU
- HSD17B13 Enzymatic Activity Percent Estradiol Control [2]: −8.68%

SMILES: CCCCC/C=C\C/C=C\C/C=C\C=C\C(=O)CCCC(=O)O [5-OxoETE]
- HSD17B13 Enzymatic Activity Relative Light Units [1]: 261280 RLU
- HSD17B13 Enzymatic Activity Percent Estradiol Control [2]: −1.90%

SMILES: CCCCC/C=C\C[C@@H]1[C@H](/C=C/C(O)CCCC(=O)O)[C@@H](O)C[C@H]1O (stereo partly drawn) [5-iPF2α-VI]
- HSD17B13 Enzymatic Activity Relative Light Units [1]: 293200 RLU
- HSD17B13 Enzymatic Activity Percent Estradiol Control [2]: 0.80%

SMILES: C[C@]12CCC(=O)C[C@@H]1CC[C@@H]1[C@@H]2CC[C@]2(C)C(=O)CC[C@@H]12 [5a-androstanedione]
- HSD17B13 Enzymatic Activity Relative Light Units (Steroid Library, 50 μM steroid): 181840 RLU
- HSD17B13 Enzymatic Activity Percent Estradiol Control (Steroid Library, 50 μM steroid): 0.37%

SMILES: CC(=O)OC1=CC[C@H]2[C@@H]3CC[C@H]4CC=CC[C@]4(C)[C@H]3CC[C@]12C [5alpha-Androsta-2,16-dien-17-yl acetate]
- HSD17B13 Enzymatic Activity Relative Light Units (Steroid Library, 50 μM steroid): 197640 RLU
- HSD17B13 Enzymatic Activity Percent Estradiol Control (Steroid Library, 50 μM steroid): 0.65%

SMILES: C[C@]12CCC(=O)C[C@@H]1CC[C@@H]1[C@@H]2C(=O)C[C@]2(C)C(=O)CC[C@@H]12 [5alpha-Androstane-3,11,17-trione]
- HSD17B13 Enzymatic Activity Relative Light Units (Steroid Library, 50 μM steroid): 228280 RLU
- HSD17B13 Enzymatic Activity Percent Estradiol Control (Steroid Library, 50 μM steroid): 1.18%

SMILES: C[C@]12CCC(=O)C[C@@H]1CC[C@@H]1[C@@H]2[C@@H](O)C[C@@]2(C)[C@H]1CC[C@]2(O)C(=O)CO [5alpha-dihydrocortisol]
- HSD17B13 Enzymatic Activity Relative Light Units (Steroid Library, 50 μM steroid): 139720 RLU
- HSD17B13 Enzymatic Activity Percent Estradiol Control (Steroid Library, 50 μM steroid): −0.36%

SMILES: CCCCC[C@H](O)/C=C/C=C\C=C\C=C\[C@H](O)[C@@H](O)CCCC(=O)O [6(S)-Lipoxin A4]
- HSD17B13 Enzymatic Activity Relative Light Units [1]: 383000 RLU
- HSD17B13 Enzymatic Activity Percent Estradiol Control [2]: 7.90%

SMILES: CCCCCC(=O)CC[C@@H]1[C@@H](CC(=O)CCCCC(=O)O)[C@@H](O)C[C@H]1O [6,15-diketo-13,14-dihydro Prostaglandin F1α]
- HSD17B13 Enzymatic Activity Relative Light Units [1]: 262680 RLU
- HSD17B13 Enzymatic Activity Percent Estradiol Control [2]: −1.61%

SMILES: CCCCC/C=C\C/C=C\C[C@H]1O[C@H]1C/C=C\CCCC(=O)NCCO [8(9)-EET Ethanolamide]
- HSD17B13 Enzymatic Activity Relative Light Units [1]: 446000 RLU
- HSD17B13 Enzymatic Activity Percent Estradiol Control [2]: 9.14%

SMILES: CCCCC[C@H](O)/C=C/C=C\C=C\[C@@H](O)C/C=C\CCCC(=O)O [8(S),15(S)-DiHETE]
- HSD17B13 Enzymatic Activity Relative Light Units [1]: 410440 RLU
- HSD17B13 Enzymatic Activity Percent Estradiol Control [2]: 9.19%
